Test results: ChEMBL document CHEMBL5518237, “Design of Novel 2-Phenylquinazolin-4-amines as Selective CYP1B1 Inhibitors for Overcoming Paclitaxel Resistance in A549 Cells” (J Med Chem, 2024)
Calls of active or inactive are those of the source. The calls are words filed in the database; no cut-off is given here.

What was measured:
[1] = Drug uptake in Kunming mouse thyroid assessed as radioactive accumulation treated with radiolabeled compound at 0.37 MBq, iv measured after 120 mins by gamma-counting analysis; format: ADME, organism-based, Thyroid gland; settings: in vivo, 2 h
[2] = n-Octanol/PBS partition coefficient, log D of the radiolabeled compound at 0.37 MBq at pH 7.4 by gamma-counting analysis; format: physicochemical; settings: octanol/water
Cytochrome P450 1A2 = biological target: T1, Cytochrome P450 1A2 (Homo sapiens, UniProt P05177); assay: Inhibition of human recombinant CYP1A2 using 7-ethoxyresorufin as substrate preincubated with enzyme for 5 mins followed by fluorescent substrate and NADPH addition and measured after 50 mins by EROD assay; format: ADME
T1 sequence (P05177 whole entry): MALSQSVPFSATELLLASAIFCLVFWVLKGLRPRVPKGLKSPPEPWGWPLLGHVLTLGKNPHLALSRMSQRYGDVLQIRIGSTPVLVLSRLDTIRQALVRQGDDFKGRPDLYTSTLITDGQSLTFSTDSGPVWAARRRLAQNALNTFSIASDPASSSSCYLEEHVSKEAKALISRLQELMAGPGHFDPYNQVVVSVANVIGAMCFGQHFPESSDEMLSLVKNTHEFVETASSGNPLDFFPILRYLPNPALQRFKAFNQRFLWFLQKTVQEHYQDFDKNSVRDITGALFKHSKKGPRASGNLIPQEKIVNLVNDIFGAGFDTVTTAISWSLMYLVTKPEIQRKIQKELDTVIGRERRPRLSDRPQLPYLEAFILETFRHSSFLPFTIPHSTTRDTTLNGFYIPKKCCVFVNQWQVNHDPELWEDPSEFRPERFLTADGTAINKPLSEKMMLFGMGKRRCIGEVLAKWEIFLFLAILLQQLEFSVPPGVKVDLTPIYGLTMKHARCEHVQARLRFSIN

[3] = Drug uptake in human HEK293T cells using radiolabeled compound at 0.037 MBq incubated for 120 mins by gamma-counting analysis; format: ADME, cell-based; settings: hek-293t, 2 h
[4] = (§1) Selectivity ratio of IC50 for Inhibition of human recombinant CYP1A2 to IC50 for Inhibition of human recombinant CYP1B1; format: ADME; settings: recombinant enzyme
[5] = (§2) Selectivity ratio of IC50 for Inhibition of human recombinant CYP1A1 to IC50 for Inhibition of human recombinant CYP1B1; format: ADME; settings: recombinant enzyme
[6] = Drug uptake in kidney of mouse xenografted with human HCT-116 cells assessed as radioactive accumulation treated with radiolabeled compound at 0.37 MBq, iv measured after 240 mins by gamma-counting analysis; format: ADME, organism-based; settings: in vivo, 4 h
[7] = Drug uptake in Kunming mouse kidney assessed as radioactive accumulation treated with radiolabeled compound at 0.37 MBq, iv measured after 120 mins by gamma-counting analysis; format: ADME, organism-based; settings: in vivo, 2 h
[8] = Drug uptake in human HCT-116 cells using radiolabeled compound at 0.037 MBq incubated for 120 mins by gamma-counting analysis; format: ADME, cell-based; settings: hct-116, 2 h
[9] = Drug uptake in Kunming mouse intestine assessed as radioactive accumulation treated with radiolabeled compound at 0.37 MBq, iv measured after 120 mins by gamma-counting analysis; format: ADME, organism-based; settings: in vivo, 2 h
Cytochrome P450 1A1 = biological target: T2, Cytochrome P450 1A1 (Homo sapiens, UniProt P04798); assay: Inhibition of human recombinant CYP1A1 using 7-ethoxyresorufin as substrate preincubated with enzyme for 5 mins followed by fluorescent substrate and NADPH addition and measured after 15 mins by EROD assay; format: ADME
T2 sequence (P04798 whole entry): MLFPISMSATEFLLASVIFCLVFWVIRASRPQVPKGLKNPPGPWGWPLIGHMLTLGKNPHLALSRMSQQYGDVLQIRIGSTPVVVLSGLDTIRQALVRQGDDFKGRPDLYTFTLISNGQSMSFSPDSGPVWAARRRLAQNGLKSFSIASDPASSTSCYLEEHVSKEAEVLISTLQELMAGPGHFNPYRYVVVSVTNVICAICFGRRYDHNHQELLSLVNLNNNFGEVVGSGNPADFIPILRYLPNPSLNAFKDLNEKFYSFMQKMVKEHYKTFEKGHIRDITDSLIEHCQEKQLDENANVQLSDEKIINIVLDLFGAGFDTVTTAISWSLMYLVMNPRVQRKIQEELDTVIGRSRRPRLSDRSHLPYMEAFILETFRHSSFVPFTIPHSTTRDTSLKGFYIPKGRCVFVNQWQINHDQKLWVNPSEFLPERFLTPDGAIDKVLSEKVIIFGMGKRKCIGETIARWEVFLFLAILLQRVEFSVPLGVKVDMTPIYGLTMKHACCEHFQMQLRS

[10] = Drug uptake in intestine of mouse xenografted with human HCT-116 cells assessed as radioactive accumulation treated with radiolabeled compound at 0.37 MBq, iv measured after 240 mins by gamma-counting analysis; format: ADME, organism-based; settings: in vivo, 4 h
[11] = Drug uptake in liver of mouse xenografted with human HCT-116 cells assessed as radioactive accumulation treated with radiolabeled compound at 0.37 MBq, iv measured after 240 mins by gamma-counting analysis; format: ADME, organism-based; settings: in vivo, 4 h
[12] = Drug metabolism in Kunming mouse assessed as deiodination treated with radiolabeled compound at 0.37 MBq, iv measured after 120 mins by gamma-counting analysis; format: ADME, organism-based; settings: in vivo, 2 h
[13] = Drug uptake in Kunming mouse lungs assessed as radioactive accumulation treated with radiolabeled compound at 0.37 MBq, iv measured after 120 mins by gamma-counting analysis; format: ADME, organism-based, Lung; settings: in vivo, 2 h
[14] = Drug uptake in human HCT-116 cells using radiolabeled compound at 0.037 MBq incubated for 240 mins by gamma-counting analysis; format: ADME, cell-based; settings: hct-116, 4 h
[15] = Drug uptake in human A549 cells using radiolabeled compound at 0.037 MBq incubated for 120 mins by gamma-counting analysis; format: ADME, cell-based; settings: a549, 2 h
[16] = Drug uptake in HCT-116 cells bearing mouse assessed as ratio of radioactive accumulation in tumor to muscle treated with radiolabeled compound at 0.37 MBq, iv measured after 30 mins by gamma-counting analysis; format: ADME, organism-based; settings: in vivo, 0.5 h
[17] = Drug uptake in HCT-116 cells bearing mouse assessed as ratio of radioactive accumulation in tumor to muscle treated with radiolabeled compound at 0.37 MBq, iv measured after 240 mins by gamma-counting analysis; format: ADME, organism-based; settings: in vivo, 4 h
[18] = Drug metabolism in mouse xenografted with human HCT-116 cells assessed as deiodination treated with radiolabeled compound at 0.37 MBq, iv measured after 240 mins by gamma-counting analysis; format: ADME, organism-based; settings: 4 h
A549 [19] = assay: Reversal of DMBA-stimulated PTX resistance in human A549 cells assessed as decrease in cell viability at 10 uM incubated for 24 hrs in presence of DMBA and paclitaxel by MTT assay; format: functional, cell-based
A549 [20] = assay: Inhibition of tumor metastasis in DMBA-stimulated PTX resistant human A549 cells assessed as inhibition of cell migration at 10 uM incubated for 48 hrs by wound healing assay; format: functional, cell-based
A549 [21] = assay: Induction of apoptosis in DMBA-stimulated PTX resistant human A549 cells assessed as apoptosis rate at 5 uM incubated for 24 hrs by flow cytometry (reference value: 6.67 +/- 1.03%); format: functional
A549 [22] = assay: Inhibition of tumor metastasis in DMBA-stimulated PTX resistant human A549 cells assessed as inhibition of cell invasion at 10 uM incubated for 24 hrs by Transwell assay; format: functional, cell-based
CYP1B1 [23] = biological target: T3, CYP1B1 (Homo sapiens, UniProt Q16678); assay: Inhibition of human recombinant CYP1B1 using 7-ethoxyresorufin as substrate at 1 uM preincubated with enzyme for 5 mins followed by fluorescent substrate and NADPH addition and measured after 35 mins by EROD assay; format: ADME; settings: recombinant CYP1B1, probe 7-ethoxyresorufin, time 40 min
T3 sequence (Q16678 whole entry): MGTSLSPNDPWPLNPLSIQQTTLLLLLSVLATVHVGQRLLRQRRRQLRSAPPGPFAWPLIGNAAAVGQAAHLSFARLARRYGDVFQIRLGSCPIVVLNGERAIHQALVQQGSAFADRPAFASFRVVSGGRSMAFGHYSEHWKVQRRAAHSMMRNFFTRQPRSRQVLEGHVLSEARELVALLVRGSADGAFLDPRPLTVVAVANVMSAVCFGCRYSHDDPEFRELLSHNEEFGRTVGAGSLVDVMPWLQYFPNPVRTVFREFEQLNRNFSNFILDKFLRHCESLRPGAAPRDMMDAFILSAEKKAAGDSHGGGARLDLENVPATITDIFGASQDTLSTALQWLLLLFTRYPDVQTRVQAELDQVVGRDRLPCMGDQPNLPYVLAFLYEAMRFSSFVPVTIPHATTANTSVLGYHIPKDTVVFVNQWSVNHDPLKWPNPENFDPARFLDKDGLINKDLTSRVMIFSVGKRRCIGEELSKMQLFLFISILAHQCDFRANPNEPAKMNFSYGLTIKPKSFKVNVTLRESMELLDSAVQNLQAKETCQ

CYP1B1 [24] = biological target: T3, CYP1B1; assay: Inhibition of human recombinant CYP1B1 using 7-ethoxyresorufin as substrate at 0.01 uM preincubated with enzyme for 5 mins followed by fluorescent substrate and NADPH addition and measured after 35 mins by EROD assay; format: ADME; settings: recombinant CYP1B1, probe 7-ethoxyresorufin, time 40 min
A549 [25] = assay: Cytotoxicity against human A549 cells assessed as reduction in cell viability at 0.625 to 20 uM incubated for 48 hrs by MTT assay; format: toxicity, cell-based; settings: a549, 48 h, dose 0.625-20 µM
Cytochrome P450 1B1 = biological target: T4, Cytochrome P450 1B1 (Homo sapiens, UniProt Q16678); assay: Inhibition of human recombinant CYP1B1 using 7-ethoxyresorufin as substrate preincubated with enzyme for 5 mins followed by fluorescent substrate and NADPH addition and measured after 35 mins by EROD assay; format: ADME
T4 sequence (Q16678 whole entry): T3 sequence (Q16678 whole entry)

CYP1A2 versus CYP1B1 = assay: as §1; format: ADME; settings: recombinant CYP1A2 and recombinant CYP1B1, read-out: Ratio IC50
CYP1A1 versus CYP1B1 = assay: as §2; format: ADME; settings: recombinant CYP1A1 and recombinant CYP1B1, read-out: Ratio IC50
HEK-293T = assay: Cytotoxicity against human HEK293T cells assessed as reduction in cell viability at 0.625 to 20 uM incubated for 48 hrs by MTT assay; format: toxicity, cell-based; settings: dose 0.625-20 µM
[26] = n-Octanol/water partition coefficient, logP of the compound by HPLC analysis; format: physicochemical

Nc1nc(-c2ccc(I)cc2)nc2ccccc12
Drug uptake [1]: Active
logD [2]: 3.24
IC50 (Cytochrome P450 1A2): 1240 nM
Drug uptake [3]: Active
Ratio IC50 [4]: 6.23 10^4No_unit
Ratio IC50 [5]: 287
Drug uptake [6]: Active
Drug uptake [7]: Active
Drug uptake [8]: Active
Drug uptake [9]: Active
IC50 (Cytochrome P450 1A1): 5.74 nM
Drug uptake [10]: Active
Drug uptake [11]: Active
Drug metabolism [12]: Metabolite_Notdetected
Drug uptake [13]: Active
Drug uptake [14]: 23.95%
Drug uptake [15]: Active
Ratio [16]: 1.27
Ratio [17]: 1.84
Drug metabolism [18]: Metabolite_Notdetected

O=c1cc(-c2ccccc2)oc2c1ccc1ccccc12 [ALPHA-NAPHTHOFLAVONE]
Activity (A549 [19]): Active
inhibition (A549 [20]): Active
Activity (A549 [21]): 15.53%
inhibition (A549 [22]): Active
inhibition at 35 min, 1 µM (CYP1B1 [23]): 95.1%
IC50 (Cytochrome P450 1A1): 86.7 nM
inhibition at 35 min, 0.01 µM (CYP1B1 [24]): 61%

Cl.FCCNc1nc(-c2ccc(I)cc2)nc2ccccc12
IC50 (Cytochrome P450 1A2): 604 nM
Activity (A549 [25]): Non-Toxic
IC50 (Cytochrome P450 1B1): 0.15 nM
selectivity ratio (CYP1A2 versus CYP1B1): 4030
selectivity ratio (CYP1A1 versus CYP1B1): 221
Activity (A549 [21]): 21.05%
inhibition at 35 min, 1 µM (CYP1B1 [23]): 95.5%
IC50 (Cytochrome P450 1A1): 33.2 nM
Activity (HEK-293T): Non-Toxic
inhibition at 35 min, 0.01 µM (CYP1B1 [24]): 90.1%
logP ([26]; n-octanol/water, read-out: logP): 3.91

CNc1nc(-c2ccc(I)cc2)nc2ccccc12.Cl
IC50 (Cytochrome P450 1A2): 827 nM
Activity (A549 [25]): Non-Toxic
IC50 (Cytochrome P450 1B1): 0.000168 nM
Ratio IC50 [4]: 4.92 10^6No_unit
Ratio IC50 [5]: 1.63 10^5No_unit
Activity (A549 [21]): 32.84%
inhibition at 35 min, 1 µM (CYP1B1 [23]): 97.1%
IC50 (Cytochrome P450 1A1): 27.4 nM
Activity (HEK-293T): Non-Toxic
inhibition at 35 min, 0.01 µM (CYP1B1 [24]): 96.6%
logP ([26]; octanol/water): 3.15
